# Laboratory results reported in US10576102B2, “KOC1-derived peptide and vaccine including same” (ONCOTHERAPY SCIENCE, INC., priority 2014, dated 2020).
# Entries after “also recorded” stand apart in the source; their conditions may differ.
# Legend:
# peptide-pulsed C1R-A01 [1] = assay: IFN-gamma ELISA of CTL lines and CTL clone (HLA-A*0101); format: cell-based, human
# Experimental: CTLs were propagated in culture using methods similar to those disclosed by Riddell et al. (Walter E A et al., N Engl J Med 1995, 333(16): 1038-44; Riddell S R et al., Nat Med 1996, 2(2): 216-23). The CTLs were co-cultured in a total of 25 ml AIM-V medium containing 5% AS and 40 ng/ml anti-CD3 antibody with two types of Mitomycin C-treated human B lymphoblastoid cell lines at 5×10^6 cells. One day after beginning of the culturing, 120 IU/ml IL-2 was added to the culture. On days 5, 8 and 11, a fresh AIM-V/5% AS medium containing 30 IU/ml IL-2 was added to the culture (Tanaka H et al., Br J Cancer 2001, 84(1): 94-9; Umano Y et al., Br J Cancer 2001, 84(8): 1052-7; Uchida N et al., Clin Cancer Res 2004, 10(24): 8577-86; Suda T et al., Cancer Sci 2006, 97(5): 411-9; Watanabe T et al., Cancer Sci 2005, 96(8): 498-506).
# CTLs were seeded to make 1 or 10 cells/well in 96 round-bottomed microtiter plates (Nalge Nunc International). The CTLs were co-cultured with two types of Mitomycin C-treated human B lymphoblastoid cell lines at 1×10^4 cells in a total of 150 micro-1/well 5% AS-containing AIM-V medium with 30 ng/ml anti-CD3 antibody and 125 IU/ml IL-2. Ten days later, 50 micro-1 of IL-2 was added to the medium to reach a final IL-2 concentration of 125 IU/ml. On day 14, the CTL activity was tested, and the CTL clones were propagated using the same method as described above (Uchida N et al., Clin Cancer Res 2004, 10(24): 8577-86; Suda T et al., Cancer Sci 2006, 97(5): 411-9; Watanabe T et al., Cancer Sci 2005, 96(8): 498-506).
# (§1) Specifically, peptide-pulsed C1R-A01 (1×10^4 cells/well) was prepared as the stimulator cell. The induced CTLs, i.e., CTL lines and CTL clones, were used as the responder cell. The IFN-gamma ELISPOT assay and IFN-gamma ELISA were performed according to the manufacturer's manual.
# [2] = test system: COS7 cells transfected with both KOC1 and HLA-A*0101; assay: Specific CTL activity against target cells expressing KOC1 and HLA-A*0101; format: cell-based, African green monkey; settings: listed as KOC1-A01-9-96
# Experimental: as §1
# A cDNA encoding the open-reading frame of a target gene or HLA-A*0101 was amplified by PCR. The PCR-amplified product was cloned into an expression vector. Expression vectors were transfected using Lipofectamine 2000 (Invitrogen) following the manufacturer's recommended protocol. Two days after transfection, the transfected cells were harvested using versene (Invitrogen), and used as the stimulator cell for CTL activity assay (5×10^4 cells/well).
# The CTL clone established against KOC1-A01-9-96 (SEQ ID NO: 86) was investigated for its ability to recognize target cells expressing KOC1 and the HLA-A*0101 molecule. COS7 cells transfected with both full-length KOC1 and the HLA-A*0101 gene (a specific model of target cells expressing KOC1 and the HLA-A*0101 gene) were prepared as the target cell. COS7 cells transfected with either full-length KOC1 or HLA-A*0101 were prepared as the control.
# peptide-pulsed C1R-A01 [3] = assay: In vitro CTL induction, IFN-gamma ELISPOT assay (HLA-A*0101); format: cell-based, human; settings: CTLs induced with peptide-pulsed DCs from HLA-A*0101-positive volunteers; day 21; vs peptide-pulsed C1R-A01, compared with unpulsed control
# Experimental: C1R (C1R-A01) that stably expresses HLA-A*0101 was used as a stimulator cell. A cDNA encoding the open-reading frame of HLA-A*0101 was amplified by PCR and cloned into an expression vector. C1R cells were transfected with the expression vector, and then selected using G418 (Invitrogen) for two weeks. The G418-selected cells were seeded into wells containing G418-added culture medium in a 96-well plate, and further cultured for 30 days. The exogenous HLA-A*0101 expression in C1R cells was verified by flow cytometric analysis.
# Monocyte-derived dendritic cells (DCs) were used as the antigen-presenting cell to induce a cytotoxic T lymphocyte (CTL) response against peptides presented on human leukocyte antigens (HLAs). As described in the other sections, DCs were generated in vitro (Nakahara S et al., Cancer Res 2003, 63(14): 4112-8). Specifically, peripheral-blood mononuclear cells isolated from healthy volunteers (HLA-A*0101-positive) with the Ficoll-Paque plus solution (Pharmacia) were separated by attaching to plastic tissue culture dishes (Becton Dickinson) and concentrated as a monocyte fraction. The monocyte-concentrated population was cultured in the presence of 1000 IU/ml granulocyte macrophage colony-stimulating factor (R&D System) and 1000 IU/ml interleukin(IL)-4 (R&D System) in an AIM-V medium (Invitrogen) containing 2% heat-inactivated autologous serum (AS). After seven days of culturing, the cytokine-induced DCs were pulsed with 20 micro-g/ml each of the synthesized peptides in an AIM-V medium at 37 degrees C. for three hours in the presence of 3 micro-g/ml beta 2-microglobulin. Next, these peptide-pulsed DCs were inactivated by X-ray irradiation (20 Gy), and mixed in a 1:20 ratio with autologous CD8^+ T cells obtained by positive selection using the CD8 Positive Isolation Kit (Dynal). These culture products were seeded in a 48-well plate (Corning). Each well was made to contain 1.5×10^4 peptide-pulsed DCs, 3×10^5 CD8^+ T cells and 10 ng/ml IL-7 (R&D System) in 0.5 ml of the AIM-V/2% AS medium. Three days later, these culture products were added with a final concentration of 20 IU/ml IL-2 (CHIRON). On day 7 and day 14, T cells were further stimulated with peptide-pulsed autologous DCs. The DCs were prepared every time by the same method as above. On day 21, after the third peptide stimulation, CTL activities were examined against the peptide-pulsed C1R-A01 cells (Tanaka H et al., Br J Cancer 2001, 84(1): 94-9; Umano Y et al., Br J Cancer 2001, 84(8): 1052-7; Uchida N et al., Clin Cancer Res 2004, 10(24): 8577-86; Suda T et al., Cancer Sci 2006, 97(5): 411-9; Watanabe T et al., Cancer Sci 2005, 96(8): 498-506).
# as §1
sequence,measurement,setting,value
VLDSLLVQY (a peptide derived from KOC1) [SEQ ID NO: 86],"IFN-gamma production of CTL clone, ELISA","peptide-pulsed C1R-A01 [1]; CTL clone by limiting dilution, peptide-pulsed C1R-A01, listed as KOC1-A01-9-96",Potent IFN-gamma production
same,"IFN-gamma production of CTL lines, ELISA","peptide-pulsed C1R-A01 [1]; CTL lines, target cells pulsed with the peptide vs not pulsed, C1R-A01",potent IFN-gamma production
same,specific CTL activity of CTL clone against target cells expressing KOC1 and HLA-A*0101,[2]; COS7 transfected with both full-length KOC1 and HLA-A*0101,specific CTL activity; also recorded: potent CTL activities
same,specific CTL activity of CTL clone against control cells,[2]; COS7 transfected with either full-length KOC1 or HLA-A*0101,a significant specific CTL activity was not shown; also recorded: a significant specific CTL activity was not detected
same,"peptide-specific CTL activity (IFN-gamma production), ELISPOT",peptide-pulsed C1R-A01 [3],potent IFN-gamma production
